Where “and” joins values, the source holds several entries; their conditions need not be identical. Equal values may be shown once.
What was measured:
[1] = target: T1, human PPARgamma-ligand binding domain (LBD) (Homo sapiens, UniProt P37231); assay: AlphaScreen: recruiting of CBP LXXLL peptide by GST-PPARgamma-LBD; assay type: biochemical; settings: for direct activation of the PPARgamma-LBD / recruiting of the LXXLL peptide: concentrations of up to 50 μM
T1 construct: codes for the amino acids 205-505 of the human PPARgamma2 transcription factor; made in house; host or cells: E. coli BL21(DE3), vector pGEX4T-1
T1 sequence (P37231 205-505): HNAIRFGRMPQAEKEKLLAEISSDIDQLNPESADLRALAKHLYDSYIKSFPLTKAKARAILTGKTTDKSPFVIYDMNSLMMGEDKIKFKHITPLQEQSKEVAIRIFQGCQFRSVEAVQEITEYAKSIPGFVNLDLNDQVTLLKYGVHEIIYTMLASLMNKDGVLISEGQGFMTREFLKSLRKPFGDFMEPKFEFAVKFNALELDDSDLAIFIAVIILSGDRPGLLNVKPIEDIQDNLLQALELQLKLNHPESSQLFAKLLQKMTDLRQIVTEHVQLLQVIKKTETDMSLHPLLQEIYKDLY
Description: Protein containing the human PPARgamma-ligand binding domain (LBD) is prepared as a GST fusion protein in E. coli and purified by affinity chromatography. […] The fusion protein is expressed in the E. coli strain BL21(DE3) recommended for pGEX vectors after induction with 0.2 mM IPTG for 4 hours at 25° C. The bacteria are pelleted after the induction and frozen in batches in PBS, pH 7.4. After opening up in a French Press, the dissolved GST-PPARgamma-LBD-fusion protein is purified using a GSTrap column (Pharmacia). Elution is carried out by the addition of 20 mM reduced glutathione. The GST-PPARgamma-LBD-protein fractions are desalinated using a HiTrap desalting column (Pharmacia) and the protein concentration is determined using a standard assay.
The assay buffer consists of 25 mM Hepes pH7.4, 100 mM NaCl, 1 mM DTT, 0.1% Tween-20, and 0.1% BSA. […] The final DMSO concentration in the assay is 1% (v/v). A 1% DMSO solution is used as the background control (NSB). The measurement is done using a Packard fusion measuring device.

[2] = target: T2, human PPARgamma-ligand binding domain (LBD) (Homo sapiens, UniProt P37231); assay: SPA assay: displacement of 3H-labeled rosiglitazone from PPARgamma-LBD; settings: for MW (SPA signal, bound 3H-rosiglitazone): NSB 217, Bmax 911; for displacement of the radioactive rosiglitazone from the binding pocket: very large excesses of test substance
T2 sequence (P37231 205-505): T1 sequence (P37231 205-505)
T2 sequence (P19793 220-461 partner limits assumed): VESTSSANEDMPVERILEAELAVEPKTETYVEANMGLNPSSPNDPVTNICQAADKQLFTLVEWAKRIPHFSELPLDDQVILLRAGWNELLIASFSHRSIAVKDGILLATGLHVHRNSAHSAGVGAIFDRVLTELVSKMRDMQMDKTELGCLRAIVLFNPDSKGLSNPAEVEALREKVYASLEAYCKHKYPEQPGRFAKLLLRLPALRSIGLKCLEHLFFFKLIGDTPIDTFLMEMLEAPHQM
Description: Protein containing the human PPARgamma-ligand binding domain (LBD) is prepared as a GST fusion protein in E. coli and purified by affinity chromatography. To do this, a DNA section which codes for the amino acids 205-505 of the human PPARgamma2 transcription factor (cf. Genbank entry U79012) is subcloned via the additionally inserted restriction cutting sites BamH I and Xho I into the expression vector pGEX4T-I (Amersham) and the sequence of the section is monitored. […] The bacteria are pelleted after the induction and frozen in batches in PBS, pH 7.4. After opening up in a French Press, the dissolved GST-PPARgamma-LBD-fusion protein is purified using a GSTrap column (Pharmacia). Elution is carried out by the addition of 20 mM reduced glutathione. The GST-PPARgamma-LBD-protein fractions are desalinated using a HiTrap desalting column (Pharmacia) and the protein concentration is determined using a standard assay. Protein containing the human RXRalpha ligand binding domain (LBD) is prepared as a His tag fusion protein in E. coli and purified by affinity chromatography. To do this, a DNA section which codes for the amino acids 220-461 of the human RXRalpha transcription factor (cf. Genbank entry NM_002957, nt 729-1457) is subcloned via the additionally introduced restriction cutting sites BamH I and Not I into the expression vector pET28c (Novagen) and the sequence of the section is monitored. The fusion protein is expressed in the E. […] The bacteria are pelleted after the expression and frozen in batches in PBS, pH 7.4. After opening up in a French Press, the dissolved His-RXRalpha-LBD-fusion protein is purified using a HiTrap chelating column (Pharmacia). Elution is carried out using a 500 mM imidazole step. The His-RXRalpha-LBD protein fractions are desalinated using a HiTrap desalting column (Pharmacia) and the protein concentration is determined using a standard assay. A description of the SPA assay format can be found in R. Mukherjee et al., J Steroid Biochem Mol Biol (2002) 81:217-225.

[3] = target: T3, fusion protein of ligand binding domain of human PPARgamma2 transcription factor and yeast GAL4 DNA binding domain (Homo sapiens, UniProt P37231); assay: Luciferase activity in stably transformed PPARgamma reporter cell line (CHO-K1 clone 11); assay type: cell-based
T3 construct: codes for amino acids 205-505 of the human PPARgamma2 transcription factor; expressed in transfected cells
T3 sequence (P37231 205-505): T1 sequence (P37231 205-505)
Description: After 24 hours, the medium is changed for one without any added G418. The test substances are brought to 100 times the desired concentration with a suitable solvent, e.g., DMSO, and diluted 1:100 with the medium placed in the cell culture plate. The solvent used, e.g., DMSO, is used as the background control in the same concentration. […] Luminescence is measured after a five minute wait using a Packard TopCount NXT. The luciferase activity is obtained by integrating the relative luciferase units (RLU) of the first ten seconds after the start of measurement.

[4] = Dissolution of active substances from Tablet 3; assay type: physicochemical; settings: Tablet 3, three batches
Text: This combination of active substances and excipients is then compressed with a suitable tablet press (e.g., Korsch EKO or Fette P1200) to form tablets. […]

For `CCCCC1=NC2(CCCC2)C(=O)N1Cc1ccc(-c2ccccc2-c2nnn[nH]2)cc1` [Irbesartan], the “direct activation of the PPARgamma-LBD / recruiting of the LXXLL peptide” value [1] was “does not result in any direct activation of the PPARgamma-LBD”, the “MW (SPA signal, bound 3H-rosiglitazone)” value ([2]; conc. 1.00E-04 M) was 510 and the “MW (SPA signal, bound 3H-rosiglitazone)” value ([2]; conc. 3.00E-07 M) was 810. The “displacement of the radioactive rosiglitazone from the binding pocket” value (“displacement” below) [2] was “no concentration-dependent displacement of the radioactive rosiglitazone”.

In the case of `CCCCc1nc(Cl)c(CO)n1Cc1ccc(-c2ccccc2-c2nn[nH]n2)cc1` [Losartan], the “direct activation of the PPARgamma-LBD / recruiting of the LXXLL peptide” value [1] is reported as “does not result in any direct activation of the PPARgamma-LBD” and the “displacement” value [2] is reported as “no concentration-dependent displacement of the radioactive rosiglitazone”.

With `CCCc1nc2c(C)cc(-c3nc4ccccc4n3C)cc2n1Cc1ccc(-c2ccccc2C(=O)O)cc1` [Telmisartan, 4′-[2-n-propyl-4-methyl-6-(1-methylbenzimidazol-2-yl)benzimidazol-1-ylmethyl]biphenyl-2-carboxylic acid] the “MW (AlphaScreen signal)” value ([1]; conc. 3.00E-06 M) was 720, the “direct activation of the PPARgamma-LBD / recruiting of the LXXLL peptide” value [1] was “does not result in any direct activation of the PPARgamma-LBD” and the “displacement” value [2] was “no concentration-dependent displacement of the radioactive rosiglitazone”. The “activation of the PPARgamma pathway in the PPARgamma reporter cell line” value [3] was “particularly potent activation of the PPARgamma pathway” and the “MW (luciferase activity)” value ([3]; conc. 3.00E-07 M, 24 hours) was 760 RLU.

For `NS(=O)(=O)c1cc2c(cc1Cl)NCNS2(=O)=O` [hydrochlorothiazide], the “dissolution of hydrochlorothiazide from tablets” value ([4]; 900 mL of 0.1 M HCl, 100 rpm, 30 minutes) was 69±6.3% and 72±2.1% and 78±1.8%.

For `CCCc1nc2c(C)cc(-c3nc4ccccc4n3C)cc2n1Cc1ccc(-c2ccccc2C(=O)[O-])cc1.[Na+]` [telmisartan sodium salt], the “dissolution of telmisartan sodium salt from tablets” value ([4]; 900 mL of 0.1 M phosphate buffer, pH 7.5, 30 minutes stirring, 75 rpm) was 92±1.5% and 96±1.8% and 100±1.0%.
